Measurements as given in PubChem BioAssay (NCI).
Where “and” joins values, the source holds several entries; their conditions need not be identical. Equal values may be shown once.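 Results reflect a 48-hour exposure of cells in 96-well plates to compound at five concentrations. Abbreviation: GI50, concentration required for 50% inhibition of growth. TGI is the concentration that stops growth completely.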

What was measured:
Experiment in all cases: NCI tumour cell line growth inhibition, 48 h
SR leukemia = tested on: SR leukemia
U251 CNS = tested on: U251 CNS
NCI-H460 lung = tested on: NCI-H460 lung
UO-31 renal = tested on: UO-31 renal
MALME-3M melanoma = tested on: MALME-3M melanoma
RXF 393 renal = tested on: RXF 393 renal
SK-MEL-28 melanoma = tested on: SK-MEL-28 melanoma
M14 melanoma = tested on: M14 melanoma
NCI/ADR-RES ovarian = tested on: NCI/ADR-RES ovarian
HOP-62 NSCLC = tested on: HOP-62 NSCLC

SMILES	TGI (SR leukemia) [µM]	TGI (U251 CNS)	TGI (NCI-H460 lung)	TGI (UO-31 renal)	TGI (MALME-3M melanoma)	TGI (RXF 393 renal)	TGI (SK-MEL-28 melanoma)	TGI (M14 melanoma) [µM]	TGI (NCI/ADR-RES ovarian)	TGI (HOP-62 NSCLC)	GI50 (U251 CNS) [µM]	GI50 (NCI-H460 lung) [µM]	GI50 (UO-31 renal)	GI50 (MALME-3M melanoma) [µM]	GI50 (RXF 393 renal) [µM]	GI50 (SK-MEL-28 melanoma) [µM]	GI50 (NCI/ADR-RES ovarian)	GI50 (SR leukemia) [µM]	GI50 (M14 melanoma) [µM]	GI50 (HOP-62 NSCLC) [µM]
C#CCn1c(I)cc2c(c1=O)COC(=O)[C@]2(O)CC	> 100	> 100 µM	> 100 µM	> 100 µM	> 100 µM	> 100 µM	> 100 µM	> 100	> 100 µM	> 100 µM	–	–	–	–	–	–	–	–	–	–
COC1(C)CCC(OS(C)(=O)=O)CO1 (centres undefined)	> 100	> 100 µM	> 100 µM	> 100 µM	> 100 µM	> 100 µM	> 100 µM	> 100	> 100 µM	> 100 µM	–	–	–	–	–	–	–	–	–	–
COC(=O)c1ccc(C)cc1C1CN=NC12Cc1cccc(C)c1C2=O (centres undefined)	> 100	> 100 µM	> 100 µM	78.3 µM	96.6 µM	> 100 µM	91.8 µM	42.1	67.1 µM	> 100 µM	–	–	–	–	–	–	–	–	–	–
COC(=O)CCCc1nc2ccccc2nc1N=Nc1ccccc1	72.7	> 100 µM	> 100 µM	> 100 µM	74.7 µM	> 100 µM	> 100 µM	76.7	57.1 µM	> 100 µM	–	–	–	–	–	–	–	–	–	–
CCN(CC)CC[n+]1ccc2c(C)c3[nH]c4ccccc4c3c(C)c2c1	3.01	1.3 µM and 5.1 µM and 1.63 µM	2.31 µM and 2.16 µM and 1.01 µM	78.6 µM and 44 µM and 16.8 µM	1.92 µM and 2.27 µM and 1.15 µM	8.83 µM and 8.41 µM and 7.26 µM	1.3 µM and 6.15 µM and 2.1 µM	3.28	48.1 µM and 125 µM	3.46 µM and 7.99 µM and 4.74 µM	0.25	0.332	22.6 µM and 10.5 µM and 4.12 µM	0.374	1.83	1.13	27.2 µM and 43.6 µM and 87.6 µM	–	–	–
Cc1cc2ccccc2n2c1nc1ccc(O)cc12	> 10	> 10 µM	> 10 µM	–	> 10 µM	> 10 µM	> 10 µM	> 10	> 10 µM	> 10 µM	–	–	–	–	–	–	–	–	–	–
COC1OC(C)/C(=N/O)C2OC(C)(C)OC12 (centres undefined)	> 100	> 100 µM	> 100 µM	> 100 µM	> 100 µM	> 100 µM	> 100 µM	> 100	> 100 µM	> 100 µM	–	–	–	–	–	–	–	–	–	–
COc1c(NC(C)=O)c2ccccc2c2ccccc12	> 100	> 100 µM	> 100 µM	> 100 µM	> 100 µM	> 100 µM	> 100 µM	> 100	> 100 µM	> 100 µM	–	–	–	–	–	–	–	–	–	–
Cc1oc(N)c(S(=O)(=O)/C(C#N)=C/c2ccccc2[N+](=O)[O-])c1C	40.2	36.3 µM	> 100 µM	30.6 µM	> 100 µM	52.8 µM	64.2 µM	41.4	> 100 µM	> 100 µM	–	–	–	–	–	–	–	–	–	–
O=[N+]([O-])/C(Cl)=C(\NCCO)C(Cl)=C(Cl)Cl	49.2	> 100 µM	> 100 µM	> 86.4 µM	65 µM	> 96.3 µM	> 100 µM	77.5	> 77.9 µM	> 100 µM	–	–	–	–	–	–	–	–	–	–
O=C(NC1=C(Cl)C(=O)c2ccccc2C1=O)C(=O)c1c(O)c2ccccc2oc1=O	80.6	20.9 µM	7.68 µM	21.1 µM	2.7 µM	21.9 µM	6.2 µM	4.4	20 µM	18.8 µM	–	–	–	–	–	–	–	–	–	–
O=C(CCC(NC(=O)OCc1ccccc1)C(=O)OCc1ccccc1)Nc1cccc(OCc2ccccc2)c1 (centres undefined)	65.5	> 100 µM	53.3 µM	–	56.4 µM	46.8 µM	> 100 µM	38.2	> 100 µM	60.1 µM	–	–	–	–	–	–	–	–	–	–
C=CCN1C(=O)C[C@H](Cc2ccccc2)NC(=O)C[C@H](Cc2ccccc2)N(CC=C)C(=O)C[C@H](Cc2ccccc2)NC(=O)C[C@@H]1Cc1ccccc1	> 100	> 100 µM	> 100 µM	> 100 µM	50.6 µM	> 100 µM	> 100 µM	> 100	> 100 µM	> 100 µM	–	–	–	–	–	–	–	–	–	–
O=C(NCc1cn(Cc2cccc(Oc3ccccc3)c2)nn1)c1cccnc1NCc1ccc(Cl)cc1	> 100	8.7 µM	7.83 µM	> 100 µM	> 100 µM	7.81 µM	> 100 µM	5.7	> 100 µM	> 100 µM	2.66	2.85	3 µM	5.69	2.19	2.95	2.86 µM	3.31	2.49	5.69
Cc1cccc(NC(=S)Nc2cccc(Cl)c2)n1	> 100	> 100 µM	> 100 µM	> 100 µM	> 100 µM	> 100 µM	> 100 µM	> 100	> 100 µM	> 100 µM	–	–	–	–	–	–	–	–	–	–
C[C@]12CC[C@H]3[C@@H](CC=C4C[C@@H](O)CC[C@@]43C)[C@@H]1C/C(=C\c1ccc([N+](=O)[O-])cc1)[C@@H]2O	> 100	–	72.9 µM	24.4 µM	53 µM	21.4 µM	57.6 µM	> 100	48.4 µM	27.7 µM	–	–	–	–	–	–	–	–	–	–
